Data set [1] in a line: In vivo release of fumagillin dissolved in a lipid membrane. As to conditions: FIG. 19B. An excerpt:
(§1) FIG. 19A and FIG. 19B depicts two graphs illustrating that fumagillin dissolved in a lipid membrane is stable in vitro but rapidly lost in vivo.

A short description of data set [2]: In vitro release of fumagillin dissolved in a lipid membrane. Type of data set: physicochemical. As to conditions: FIG. 19A.
From the text: as §1

In a further data set the test system is Vx2 tumor. Kind of data set: Vx2 tumor model, angiogenesis MR contrast enhancement. Type of data set: in vivo, rabbit. As to conditions: 1.5 T, FIG. 4A.

Entries after “also recorded” stand apart in the source; their conditions may differ.

Consider `CO[C@@H]1[C@H](OC(=O)/C=C/C=C/C=C/C=C/C(=O)O)CC[C@]2(CO2)[C@H]1[C@@]1(C)O[C@@H]1CC=C(C)C` [fumagillin], for which the “In vivo release of fumagillin” value in data set [1] is “rapidly releases in vivo; also recorded: occurs in a matter of minutes”. The “In vitro release of fumagillin” value in data set [2] is recorded as “sustained over 4 days”.

As for `CC(=O)O[C@H]1C(=O)[C@@]2(C)[C@H]([C@H](OC(=O)c3ccccc3)[C@]3(O)C[C@H](OC(=O)[C@H](O)[C@@H](NC(=O)c4ccccc4)c4ccccc4)C(C)=C1C3(C)C)[C@]1(OC(C)=O)CO[C@@H]1C[C@@H]2O` [non-prodrug paclitaxel, paclitaxel], in the data set on Vx2 tumor, the “change in angiogenesis contrast enhancement” value is “non-significant change”.

The record behind these values is patent US11872313B2, “Prodrug compositions, prodrug nanoparticles, and methods of use thereof” (Washington University, priority 2010, dated 2024).
